Where “and” joins values, the source holds several entries; their conditions need not be identical. Equal entries are not always repeated. Marks after values point to notes of the source that are not given here.
Experiments:
Rhesus Monkeys = experiment: Template bleed times in rhesus monkeys; format: in vivo, rhesus monkey; conditions: for Template Bleed Times / Template Bleed Times, Mean of all times / Template Bleed Times, Mean per animal / Template Bleed Times, Mean for time points 1-24 hr (post-Compound A dosing): in min (unit assumed); for Template Bleed Times, Mean of animals: mean of two animals; for Template Bleed Times, Mean of all times: all times (0-24 hr)
Excerpt: Injectable heparins are often dose limited by their bleeding consequences which result in a narrow therapeutic window for treatment effects.

thrombin generation = experiment: Thrombin generation inhibition assay; format: biochemical, human
Procedure: After 10 min, the reaction was stopped by addition of EGTA. A chromogenic peptide substrate (Spectrozyme TH, American Diagnostica) specific for thrombin was added to measure the activity of thrombin generated during the tissue factor treatment period. After allowing the substrate cleavage reaction to proceed for 2 min, the samples were quenched with glacial acetic acid. The plasma samples were analyzed in triplicate in a 96-well plate format. […] The control samples were used to establish plate acceptance criteria. Absorbance of each sample well was measured at 405 nm.
Thrombin generation (% Inhibition) was calculated from absorbance at 405 nm (A405) by the following equation: %Inhibition=(1−A405/Baseline)×100.
Since thrombin generation inhibition values were reported as a percentage there is no lower limit of quantitation in this assay.

[1] = system: clotting times (prothrombin time, PT and activated partial thromboplastin times, aPTT); experiment: Ex vivo clotting times (PT, aPTT) in the rat thrombosis model
Procedure: (§1) In this experiment, the ability of Compound A to maintain vessel patency under arterial flow conditions in ferric chloride induced thrombosis in rat carotid artery is compared to that achieved by clopidogrel. Compound A was administered by intravenous infusions and clopidogrel was dosed orally for three days. Ex vivo platelet aggregation induced by 10 μM ADP and clotting times (prothrombin time, PT and activated partial thromboplastin times, aPTT) were measured over the experimental time course (90 min) in all animals.
as §1, with “The combination effect of an anticoagulant and anti-platelet agent, aspirin, was investigated in an in vivo model of thrombosis. […] In” for “In”, “aspirin.” for “clopidogrel.”, “aspirin” for “clopidogrel”, “administered as an intravenous bolus approximately 30 min prior to the start of the experiment.” for “dosed orally for three days.”, “μg/mL of collagen” for “μM ADP”

[2] = system: ADP induced platelet aggregation; experiment: Ex vivo platelet aggregation induced by 10 μM ADP; format: in vivo; conditions: Rattus norvegicus, read-out: % inhibition of platelet aggregation
Procedure: as §1
This level of platelet inhibition is approximately equivalent to that attained by clopidogrel's effect on human platelets at the therapeutic dose in clinical use (75 mg per day). […] Time to occlusion was measured in animals that had vessel occlusion.

[3] = system: Thrombosis on mouse mesenteric arteries; experiment: FeCl3 thrombosis on mouse mesenteric arteries; format: in vivo, mice; conditions: for Mean time to occlusion: P2Y12^+/− mice, 10 mg/kg
Excerpt: Commonly used P2Y12 antagonists such as clopidogrel are prescribed at doses that block 40-50% of the P2Y12 receptors on platelets of treated patients. It has been shown that P2Y12^+/− mice which express ˜50% of the receptor on their platelets compared to wild type control (P2Y12^+/+), display an intermediate thrombosis phenotype between wild type and mice completely deficient in P2Y12 (P2Y12^−/−). (Andre, P., et al., J Clin Invest, 2003. 112(3):398-406). P2Y12 regulates platelet adhesion/activation, thrombus growth, and thrombus stability in injured arteries. The effect of Compound A was studied in a thrombosis model with P2Y12^+/− mice to effectively mimic the combination of dual dosing of factor Xa inhibitor and P2Y12 antagonist in humans.
Thrombosis on mouse mesenteric arteries (shear rate 1000-1300 s^−1) was performed and recorded as previously described (Andre, P., et al., J Clin Invest, 2003. 112(3):398-406). Platelets were labeled in situ using rhodamine 6G (0.2 mg/mL) and administered through the tail vein 10 min before visualization of the arteries. Vessel-wall injury was triggered by a 1×1-mm filter paper saturated with a 10% FeCl3 solution. After 5 minutes, the filter paper was removed and mesenteric arteries rinsed with warmed saline (37° C.). Platelet vessel-wall interactions were recorded for 40 additional minutes or until full occlusion occurred and persisted for more than 40 seconds. C57Bl6J mice (wild type control or P2Y12^+/−) were orally gavaged with vehicle control, compound A (2, 4, 10 mg/kg) two hours prior to vascular injury. Thrombosis was analyzed in real time using Simple PCI software. The fluorescence intensity was recorded at a rate of 2 Hz for 40 minutes and plotted over time. Time to occlusion (cessation of blood flow) was analyzed. Plasma concentrations of Compound A were determined on blood collected 2 min post-occlusion or 42 min after start of vascular injury.

p-glycoprotein = p-glycoprotein (Homo sapiens, UniProt P08183); experiment: In vitro evaluations of p-glycoprotein substrate; format: in vitro ADME
p-glycoprotein, sequence (P08183 whole entry): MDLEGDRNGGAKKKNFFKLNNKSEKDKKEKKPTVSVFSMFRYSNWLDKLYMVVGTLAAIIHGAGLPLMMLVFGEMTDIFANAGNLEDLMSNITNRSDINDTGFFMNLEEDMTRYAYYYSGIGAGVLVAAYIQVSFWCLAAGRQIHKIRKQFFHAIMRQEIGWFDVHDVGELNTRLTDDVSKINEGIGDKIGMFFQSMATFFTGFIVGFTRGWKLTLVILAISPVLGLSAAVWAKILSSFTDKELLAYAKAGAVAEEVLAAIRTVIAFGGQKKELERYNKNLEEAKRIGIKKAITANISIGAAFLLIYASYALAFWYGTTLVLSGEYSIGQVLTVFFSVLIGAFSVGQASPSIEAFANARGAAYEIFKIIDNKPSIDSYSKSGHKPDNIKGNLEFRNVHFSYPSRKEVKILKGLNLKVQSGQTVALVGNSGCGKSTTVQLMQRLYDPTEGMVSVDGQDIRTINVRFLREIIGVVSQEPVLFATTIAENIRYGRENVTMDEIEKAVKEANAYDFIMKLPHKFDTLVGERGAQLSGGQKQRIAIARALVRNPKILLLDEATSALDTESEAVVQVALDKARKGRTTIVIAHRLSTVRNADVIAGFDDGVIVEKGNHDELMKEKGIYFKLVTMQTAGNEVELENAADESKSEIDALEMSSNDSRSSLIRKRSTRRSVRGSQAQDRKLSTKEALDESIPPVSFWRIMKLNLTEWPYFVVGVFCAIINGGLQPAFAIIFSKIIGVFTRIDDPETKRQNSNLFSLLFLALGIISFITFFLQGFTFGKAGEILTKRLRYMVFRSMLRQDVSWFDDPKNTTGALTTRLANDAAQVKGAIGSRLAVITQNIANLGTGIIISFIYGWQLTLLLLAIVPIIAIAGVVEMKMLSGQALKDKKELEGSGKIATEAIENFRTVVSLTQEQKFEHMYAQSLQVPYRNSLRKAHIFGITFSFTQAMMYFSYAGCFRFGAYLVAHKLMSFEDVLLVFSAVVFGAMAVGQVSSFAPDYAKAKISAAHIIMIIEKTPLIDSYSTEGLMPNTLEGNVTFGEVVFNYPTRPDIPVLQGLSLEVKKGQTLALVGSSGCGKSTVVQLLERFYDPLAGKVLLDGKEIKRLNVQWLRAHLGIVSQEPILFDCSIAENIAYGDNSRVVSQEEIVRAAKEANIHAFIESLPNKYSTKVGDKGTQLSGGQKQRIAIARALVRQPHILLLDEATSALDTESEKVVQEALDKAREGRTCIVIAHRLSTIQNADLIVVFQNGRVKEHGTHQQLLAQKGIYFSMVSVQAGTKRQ

[4] = Compound A 0.03 μM, aspirin 3 mg/kg, or both
[5] = wild type mice, 10 mg/kg oral gavage

COc1ccc(NC(=O)c2ccc(C(=N)N(C)C)cc2)c(C(=O)Nc2ccc(Cl)cn2)c1 [Compound A, [2-({4-[(dimethylamino)iminomethyl]phenyl}carbonylamino)-5-methoxyphenyl]-N-(5-chloro(2-pyridyl))carboxamide]
Template Bleed Times (Rhesus Monkeys; 4.0 mg/kg, 1 hr, individual animals (Rhesus # 30675, 30973)): 1.50 and 3.75 | Template Bleed Times, Mean of animals (Rhesus Monkeys; 4.0 mg/kg, 1 hr): 2.63 min | Template Bleed Times (Rhesus Monkeys; 4.0 mg/kg, 2 hr, individual animals (Rhesus # 30675, 30973)): 1.50 | Template Bleed Times, Mean of animals (Rhesus Monkeys; 4.0 mg/kg, 2 hr): 1.5 min | Template Bleed Times (Rhesus Monkeys; 4.0 mg/kg, 3 hr, individual animals (Rhesus # 30675, 30973)): 1.50 | Template Bleed Times, Mean of animals (Rhesus Monkeys; 4.0 mg/kg, 3 hr): 1.5 min | Template Bleed Times (Rhesus Monkeys; 4.0 mg/kg, 8 hr, individual animals (Rhesus # 30675, 30973)): 2.00 | Template Bleed Times, Mean of animals (Rhesus Monkeys; 4.0 mg/kg, 8 hr): 2 min | Template Bleed Times (Rhesus Monkeys; 4.0 mg/kg, 24 hr, individual animals (Rhesus # 30675, 30973)): 2.50 | Template Bleed Times, Mean of animals (Rhesus Monkeys; 4.0 mg/kg, 24 hr): 2.5 min | Template Bleed Times, Mean of all times (Rhesus Monkeys; 4.0 mg/kg): 1.98* | Template Bleed Times, Mean per animal (Rhesus Monkeys; 4.0 mg/kg, mean over time points of each animal (Rhesus # 30675, 30973)): 1.80 and 2.25 | Template Bleed Times, Mean for time points 1-24 hr (post-Compound A dosing) (Rhesus Monkeys; 4.0 mg/kg): 2.03** | Template Bleed Times (Rhesus Monkeys; 7.5 mg/kg, 1 hr, individual animals (Rhesus # 25285, 27678)): 3.00 and 2.00 | Template Bleed Times, Mean of animals (Rhesus Monkeys; 7.5 mg/kg, 1 hr): 2.5 min | Template Bleed Times (Rhesus Monkeys; 7.5 mg/kg, 2 hr, individual animals (Rhesus # 25285, 27678)): 2.50 and 1.75 | Template Bleed Times, Mean of animals (Rhesus Monkeys; 7.5 mg/kg, 2 hr): 2.13 min | Template Bleed Times (Rhesus Monkeys; 7.5 mg/kg, 3 hr, individual animals (Rhesus # 25285, 27678)): 2.50 and 2.00 | Template Bleed Times, Mean of animals (Rhesus Monkeys; 7.5 mg/kg, 3 hr): 2.25 min | Template Bleed Times (Rhesus Monkeys; 7.5 mg/kg, 8 hr, individual animals (Rhesus # 25285, 27678)): 4.00 and 2.50 | Template Bleed Times, Mean of animals (Rhesus Monkeys; 7.5 mg/kg, 8 hr): 3.25 min | Template Bleed Times (Rhesus Monkeys; 7.5 mg/kg, 24 hr, individual animals (Rhesus # 25285, 27678)): 2.50 | Template Bleed Times, Mean of animals (Rhesus Monkeys; 7.5 mg/kg, 24 hr): 2.5 min | Template Bleed Times, Mean of all times (Rhesus Monkeys; 7.5 mg/kg): 2.50* | Template Bleed Times, Mean per animal (Rhesus Monkeys; 7.5 mg/kg, mean over time points of each animal (Rhesus # 25285, 27678)): 2.90 and 2.15 | Template Bleed Times, Mean for time points 1-24 hr (post-Compound A dosing) (Rhesus Monkeys; 7.5 mg/kg): 2.53** | bleeding times (Rhesus Monkeys; supra-therapeutic doses (7 to 35 times greater than the 0.21 mg/kg to 0.57 mg/kg human therapeutic doses)): did not extend of bleeding times | bleeding time in monkeys (Rhesus Monkeys; therapeutic levels, plasma concentrations between 5 to 25 ng/mL): did not cause extension of bleeding | correlation between Compound A plasma concentration and inhibition of thrombin generation (thrombin generation; plasma of healthy volunteers, single and multiple ascending doses (FIG. 1, FIG. 2)): good correlation | effect on inhibition of thrombin generation (thrombin generation; total knee replacement patients, 15 mg or 40 mg oral twice a day): dose- and concentration-dependent effect | PT ratio ([1]; 0.03 μM Compound A): 1.08 | PT ratio ([1]; 0.1 μM Compound A): 1.19 | PT ratio ([1]; 0.3 μM Compound A): 1.33 | APTT Ratio [1, 4]: 1.08 | PT ratio [1, 4]: 1.07 | change in PT ([1]; therapeutic dose of the single agent): 33% | inhibition at 0.03 µM [2]: -2% | inhibition at 0.1 µM [2]: 4% | inhibition at 0.3 µM [2]: 0.8% | plasma concentration sufficient to prevent vascular occlusion ([3]; P2Y12^+/− animals): more than 76 ng/mL | time to occlusion ([3]; P2Y12^+/− mice with Compound A (756.7 seconds without)): over 2100 seconds | Mean time to occlusion ([3]; Experiment 1): 2143 s | Mean time to occlusion ([3]; Experiment 2): 2399 s | Mean time to occlusion ([3]; Experiment 3): 2305 s | circulating plasma concentration that prevented vascular occlusion ([3]; wild type animals): more than 1000 ng/mL | time for appearance of first thrombus [3, 5]: significantly delayed | time to occlusion [3, 5]: significantly delayed | antithrombotic effect ([3]; wild type mice, 2 and 4 mg/kg oral gavage two hours prior to injury): non-effective | p-glycoprotein substrate (p-glycoprotein): substrate of p-glycoprotein

— patent US8455440B2, “Combination anticoagulant therapy with a compound that acts as a factor Xa inhibitor” (Millennium Pharmaceuticals, Inc., priority 2007, dated 2013)
